Assays:
[1] = target: T1, c-Met (Homo sapiens, UniProt P08581); test: cell-free Z-LYTE Tyr6 peptide kinase assay, dose-response; assay type: biochemical
[2] = target: T1, c-Met; test: cell-free Z-LYTE Tyr6 peptide kinase assay, positive control measured by the authors; assay type: biochemical

T1 sequence (P08581 25-307): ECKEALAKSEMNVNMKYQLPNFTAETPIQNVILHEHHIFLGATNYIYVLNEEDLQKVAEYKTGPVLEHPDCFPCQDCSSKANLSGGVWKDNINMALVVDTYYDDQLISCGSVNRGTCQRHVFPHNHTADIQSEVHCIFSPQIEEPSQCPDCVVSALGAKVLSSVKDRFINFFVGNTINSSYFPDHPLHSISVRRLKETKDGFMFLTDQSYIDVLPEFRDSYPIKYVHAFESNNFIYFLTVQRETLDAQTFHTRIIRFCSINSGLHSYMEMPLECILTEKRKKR
T1 sequence (P08581 308-1390): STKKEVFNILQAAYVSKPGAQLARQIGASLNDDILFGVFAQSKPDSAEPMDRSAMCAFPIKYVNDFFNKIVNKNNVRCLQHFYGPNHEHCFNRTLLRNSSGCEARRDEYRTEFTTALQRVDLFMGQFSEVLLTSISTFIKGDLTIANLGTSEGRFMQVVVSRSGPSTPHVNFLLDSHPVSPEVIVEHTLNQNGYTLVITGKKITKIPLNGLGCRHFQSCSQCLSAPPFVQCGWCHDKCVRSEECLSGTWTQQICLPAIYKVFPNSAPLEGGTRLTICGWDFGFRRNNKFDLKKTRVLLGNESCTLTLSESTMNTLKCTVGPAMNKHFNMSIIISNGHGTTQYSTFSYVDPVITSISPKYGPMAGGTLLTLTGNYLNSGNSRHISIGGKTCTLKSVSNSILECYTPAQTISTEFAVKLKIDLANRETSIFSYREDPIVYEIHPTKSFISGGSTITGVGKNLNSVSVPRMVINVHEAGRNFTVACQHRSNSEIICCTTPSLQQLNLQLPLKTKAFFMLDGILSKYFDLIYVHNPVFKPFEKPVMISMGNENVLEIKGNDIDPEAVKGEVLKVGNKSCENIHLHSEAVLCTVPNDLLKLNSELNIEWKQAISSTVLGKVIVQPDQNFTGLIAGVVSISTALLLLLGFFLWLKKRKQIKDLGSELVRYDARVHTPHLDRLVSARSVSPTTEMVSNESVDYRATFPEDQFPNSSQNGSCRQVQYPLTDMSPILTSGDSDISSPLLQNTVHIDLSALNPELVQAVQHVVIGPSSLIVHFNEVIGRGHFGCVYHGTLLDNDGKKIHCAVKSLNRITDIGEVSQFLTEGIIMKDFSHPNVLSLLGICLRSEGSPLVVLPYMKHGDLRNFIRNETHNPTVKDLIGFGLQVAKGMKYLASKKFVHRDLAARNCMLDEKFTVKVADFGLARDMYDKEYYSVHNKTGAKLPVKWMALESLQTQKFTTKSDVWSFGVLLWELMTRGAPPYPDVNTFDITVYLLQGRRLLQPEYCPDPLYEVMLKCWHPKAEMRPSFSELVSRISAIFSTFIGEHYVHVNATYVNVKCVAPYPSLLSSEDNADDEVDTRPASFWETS

| SMILES | IC50 [1] [µM] | IC50 [2] [µM] |
| --- | --- | --- |
| O[C@]12CCCCCC[C@@H]3CCN4CCC[C@](O)(CCCCCC[C@@H]5CCN(CCC1)[C@H]2O5)[C@@H]4O3 [ARG C, Araguspongine C] | 19.9 |  |
| C/C=C(/C=O)[C@@H](CC=O)CC(=O)OCCc1ccc(O)cc1 [OC, (−)-Oleocanthal] |  | 5 |

Reference: PMC4306938, “Araguspongine C Induces Autophagic Death in Breast Cancer Cells through Suppression of c-Met and HER2 Receptor Tyrosine Kinase Signaling” (Marine Drugs, 2015)
